Data set [1] deals with monoamine oxidase enzyme Type-B (MAO-B). Conditions: cited from earlier work.
For data set [2] the following is noted: 80° C.-100° C., presence of a chloride ion source and low pH.

Results on three compounds are retold here after patent US7598420B1, “Rasagiline formulations and processes for their preparation” (Teva Pharmaceutical Industries, Ltd., priority 2005, dated 2009).

Each structure is given as a SMILES string.

For the compound `C#CCN[C@@H]1CCc2ccccc21` [(R)-PAI, N-propargyl-1(R)-aminoindan], the MAO-B inhibitory activity result in data set [1] is “active MAO-B inhibitor”. The “degree of selectivity for MAO-B inhibition” value in data set [1] (compared with the corresponding racemic form) is on record as “surprisingly higher than that of the corresponding racemic form”.

Consider `C#CCN[C@H]1CCc2ccccc21` [(S)-PAI], for which the MAO-B inhibitory activity result in data set [1] was “extremely low MAO-B inhibitory activity”.

As to `C#CCN[C@@H]1CCc2ccccc21.CS(=O)(=O)O` [rasagiline mesylate, N-propargyl-1(R)-aminoindan mesylate], the “chlorination of the triple bond to form chlorinated allyl aminoindans (2-chloro and cis-3-chloro)” value in data set [2] was “susceptible to chlorination”.
